Test: Solubility in water
Type: physicochemical

solubility in water: completely soluble
SMILES: O=C(CCN1C(=O)C=CC1=O)NCCCOCCOCCOCCCNC(=O)[C@H](Cc1c[nH]cn1)NC(=S)Nc1ccc(CNC(=O)CCCC[C@@H]2SC[C@@H]3NC(=O)N[C@@H]32)cc1 [Example 3]

Source: patent US20050037423A1, “Isotopycally coded affinity marker 2” (Bayer Healthcare AG, priority 2001, published 2005)
